Patent US20240083933A1, “DISACCHARIDES FOR TREATING BONE DISEASES” (UNIVERSITE DE PICARDIE JULES VERNE, priority 2020, published 2024)

How the values were obtained:
MC3T3-E1 cells = experiment: Calcium assay (pro-calcifying activity) on mouse pre-osteoblastic cells; format: cell-based; settings: for production of calcium by the MC3T3-E1 cells (calcium dosage in culture medium): 9 days, 4 mM Pi, 30 μM compound, vs control+Pi (FIG. 1); for increase in calcification relative to the mineralizing medium: MC3T3-E1, 25 days
Method: FIG. 1 represents the calcium dosage in the MC3T3-E1 culture medium (in […] of protein per well) after 9 days of exposure of these cells to 4 mM of Pi ([…]) (control+Pi) and 4 mM of Pi in the presence of 30 μM of each of the compounds referenced DP2SNA, DP2NA, DP2K and DP2S;
(§1) For all experiments, a mouse pre-osteoblastic cell line (MC3T3-E1, ATCC) and human primary osteoblastic cells (HOb, Promocell) were used. The mouse pre-osteoblastic cells were cultured in 75 cm^2 flasks, containing 15 mL of α-MEM medium (M4526, SIGMA) and 10% fetal calf serum (FCS), containing 1% Penicillin/Streptomycin antibiotics and 1% glutamine. Similarly, human HOb cells were cultured in 75 cm 2 flasks containing 15 mL of proliferation medium (Human Osteoblast Proliferation Medium, PromoCell). The cells are maintained in the oven at 37° C., with 5% CO2 and 90% humidity. The medium was changed every three days.
(§2) MC3T3-E1 cells were seeded in 6-well plates at 63,700 cells/well to be treated in order to extract RNA or for alkaline phosphatase enzymatic activity assay and in 48-well plates for the calcium assay at 5250 cells/well. The HOb cells were seeded at 182,000 cells/well in 6-well plates for the extraction of RNA or for the alkaline phosphatase enzymatic activity assay; at 15,000 cells/well in 48-well plates for the calcium assay; at 10,000 cells/well in 48-well plates for the MTT test or the WST-1 test and at 100,000 cells/well in 6-well plates for the protein extraction or for the fluorescence.
(§3) In order to induce the mineralization, the MC3T3-E1 cells were treated with α-MEM medium containing 5% FCS to which 10 mM of β-glycerophosphate and 50 μg/mL of ascorbic acid are added. The HOb cells were treated with the “Osteoblast mineralization medium” (Promocell). […] After filtration, the cells were treated with the respective media (500 μL per well of the 48-well plate and 2 mL per well of the 6-well plate).
The release of calcium in the culture medium of mouse pre-osteoblastic cells (MC3T3-E1) has been studied.
An increase in calcification was observed, relative to the mineralizing medium (FIG. 2), in the presence of DP2R0 at 15 μM (40±2%), at 30 μM (28±18%) and at 50 μM (40±28%), and DP2NA at 15 μM (15±14%), at 30 μM (33±12%) and at 50 μM (10±19%).

[1] = Acetate migration DP2/DP2′ in solution (stability); format: physicochemical; settings: water, after 44 days
Method: The compound DP2′ was extracted from the DP2-DP2′ mixture which is formed when the compound DP2 is dissolved in water. The compound DP2′ has been separated by preparative HPLC chromatography with water as elution solvent.
The inventors have observed that when the compound DP2′ was in water, the delocalization of the acetate group was also present, but with very slow kinetics compared to the DP2→DP2′ reaction. Thus, a solution of DP2′ in water which is left to rest contains, after 44 days, 10 to 15% of DP2. The DP2′ therefore remains alone in the water for a given duration which is quite long. It is therefore possible to test the biological effect of DP2′ in solution in water.
Similarly, the inventors have observed that the kinetics of the DP2→DP2′ reaction is such that it is also possible to test the biological activity of the compound DP2 alone after extraction of the formed compound DP2′. Thus, the two compounds DP2 and DP2′ can coexist or not in water for a given duration.
In methanol, for example, the compound DP2 is therefore alone.
There is about ⅔ of DP2R2 for ⅓ of DP2′. The compound DP2′ comes from a migration of the acetate group (R2) on the 30H position. The compound DP2′ could be isolated and synthesized as previously indicated. […]

HOb cells = experiment: Calcium assay (pro-calcifying activity, mineralization) on human primary osteoblastic cells; format: cell-based; settings: for increase in calcification relative to the mineralizing condition: HOb
Method: as §1, §2, §3
The calcification has also been studied on human osteoblastic cells (Hob, PromoCell, Heidelberg, Germany). They are isolated from femoral trabecular bone tissues.

## CCCO[C@H]1O[C@H](COS(=O)(=O)[O-])[C@@H](O[C@@H]2O[C@H](CO)[C@@H](O)[C@H](O)[C@H]2NC(C)=O)[C@H](O)[C@H]1OC(C)=O.[Na+] [DP2S, n-propyl, 2-0-acetyl-6-O-sulfo-α-D-Glucopyranoside, 4-O-(2-acetamido-2-desoxy-β-D-glucopyranosyl), monosodium salt]
MC3T3-E1 cells
  production of calcium by the MC3T3-E1 cells (calcium dosage in culture medium): significantly inhibits the expression of calcium

## CCCOC1OC(CO)C(OC2OC(CO)C(O)C(O)C2NC(C)=O)C(OC(C)=O)C1O [DP2′, n-propyl, 3-0-acetyl-α-D-Glucopyranoside, 4-O-(2-acetamido-2-deoxy-β-D-glucopyranosyl)]
[1]
  DP2 content of a solution of DP2′ in water left to rest: 10 to 15%
HOb cells; 14 days, mineralizing conditions, 30 μM
  percentage of mineralization of the HOb cells: 143.806±36.657%

## CCCO[C@H]1OC(COS(=O)(=O)[O-])[C@@H](O[C@@H]2OC(CO)[C@@H](O)C(O)C2NC(C)=O)C(O)C1O.[Na+] (stereo partly drawn) [DP2SNA, n-propyl, 6-O-sulfo-α-D-Glucopyranoside, 4-O-(2-acetamido-2-desoxy-β-D-glucopyranosyl), monosodium salt]
MC3T3-E1 cells
  production of calcium by the MC3T3-E1 cells (calcium dosage in culture medium): increase the production of calcium

## CCCO[C@H]1OC(CO)[C@@H](O[C@@H]2OC(CO)[C@@H](O)C(O)C2NC(C)=O)C(O)C1O (stereo partly drawn) [DP2NA, n-propyl, α-D-Glucopyranoside, 4-O-(2-acetamido-2-deoxy-β-D-glucopyranosyl)]
HOb cells; 14 days, 15 μM
  increase in calcification relative to the mineralizing condition: 45±42%
HOb cells; 14 days, 30 μM
  increase in calcification relative to the mineralizing condition: 44±7%
HOb cells; 14 days, 50 μM
  increase in calcification relative to the mineralizing condition: 35±8%
HOb cells; lower concentrations 5, 7.5 and 10 μM (FIG. 4)
  mineralization of the HOb cells relative to the mineralizing medium alone: decrease in mineralization
MC3T3-E1 cells
  production of calcium by the MC3T3-E1 cells (calcium dosage in culture medium): increase the production of calcium
MC3T3-E1 cells; 15 μM
  increase in calcification relative to the mineralizing medium: 15±14%
MC3T3-E1 cells; 30 μM
  increase in calcification relative to the mineralizing medium: 33±12%
MC3T3-E1 cells; 50 μM
  increase in calcification relative to the mineralizing medium: 10±19%
